30 molecules from patent US8895733B2 (Novartis AG, priority 2010, dated 2014) can be followed below.

Molecules are shown by their SMILES. pIC50: −log10 of the molar value.

In this experiment the target is T1, Nav 1.7 (Homo sapiens, UniProt Q15858).
T1 construct: expressed in transfected cells
T1 sequence (Q15858 whole entry): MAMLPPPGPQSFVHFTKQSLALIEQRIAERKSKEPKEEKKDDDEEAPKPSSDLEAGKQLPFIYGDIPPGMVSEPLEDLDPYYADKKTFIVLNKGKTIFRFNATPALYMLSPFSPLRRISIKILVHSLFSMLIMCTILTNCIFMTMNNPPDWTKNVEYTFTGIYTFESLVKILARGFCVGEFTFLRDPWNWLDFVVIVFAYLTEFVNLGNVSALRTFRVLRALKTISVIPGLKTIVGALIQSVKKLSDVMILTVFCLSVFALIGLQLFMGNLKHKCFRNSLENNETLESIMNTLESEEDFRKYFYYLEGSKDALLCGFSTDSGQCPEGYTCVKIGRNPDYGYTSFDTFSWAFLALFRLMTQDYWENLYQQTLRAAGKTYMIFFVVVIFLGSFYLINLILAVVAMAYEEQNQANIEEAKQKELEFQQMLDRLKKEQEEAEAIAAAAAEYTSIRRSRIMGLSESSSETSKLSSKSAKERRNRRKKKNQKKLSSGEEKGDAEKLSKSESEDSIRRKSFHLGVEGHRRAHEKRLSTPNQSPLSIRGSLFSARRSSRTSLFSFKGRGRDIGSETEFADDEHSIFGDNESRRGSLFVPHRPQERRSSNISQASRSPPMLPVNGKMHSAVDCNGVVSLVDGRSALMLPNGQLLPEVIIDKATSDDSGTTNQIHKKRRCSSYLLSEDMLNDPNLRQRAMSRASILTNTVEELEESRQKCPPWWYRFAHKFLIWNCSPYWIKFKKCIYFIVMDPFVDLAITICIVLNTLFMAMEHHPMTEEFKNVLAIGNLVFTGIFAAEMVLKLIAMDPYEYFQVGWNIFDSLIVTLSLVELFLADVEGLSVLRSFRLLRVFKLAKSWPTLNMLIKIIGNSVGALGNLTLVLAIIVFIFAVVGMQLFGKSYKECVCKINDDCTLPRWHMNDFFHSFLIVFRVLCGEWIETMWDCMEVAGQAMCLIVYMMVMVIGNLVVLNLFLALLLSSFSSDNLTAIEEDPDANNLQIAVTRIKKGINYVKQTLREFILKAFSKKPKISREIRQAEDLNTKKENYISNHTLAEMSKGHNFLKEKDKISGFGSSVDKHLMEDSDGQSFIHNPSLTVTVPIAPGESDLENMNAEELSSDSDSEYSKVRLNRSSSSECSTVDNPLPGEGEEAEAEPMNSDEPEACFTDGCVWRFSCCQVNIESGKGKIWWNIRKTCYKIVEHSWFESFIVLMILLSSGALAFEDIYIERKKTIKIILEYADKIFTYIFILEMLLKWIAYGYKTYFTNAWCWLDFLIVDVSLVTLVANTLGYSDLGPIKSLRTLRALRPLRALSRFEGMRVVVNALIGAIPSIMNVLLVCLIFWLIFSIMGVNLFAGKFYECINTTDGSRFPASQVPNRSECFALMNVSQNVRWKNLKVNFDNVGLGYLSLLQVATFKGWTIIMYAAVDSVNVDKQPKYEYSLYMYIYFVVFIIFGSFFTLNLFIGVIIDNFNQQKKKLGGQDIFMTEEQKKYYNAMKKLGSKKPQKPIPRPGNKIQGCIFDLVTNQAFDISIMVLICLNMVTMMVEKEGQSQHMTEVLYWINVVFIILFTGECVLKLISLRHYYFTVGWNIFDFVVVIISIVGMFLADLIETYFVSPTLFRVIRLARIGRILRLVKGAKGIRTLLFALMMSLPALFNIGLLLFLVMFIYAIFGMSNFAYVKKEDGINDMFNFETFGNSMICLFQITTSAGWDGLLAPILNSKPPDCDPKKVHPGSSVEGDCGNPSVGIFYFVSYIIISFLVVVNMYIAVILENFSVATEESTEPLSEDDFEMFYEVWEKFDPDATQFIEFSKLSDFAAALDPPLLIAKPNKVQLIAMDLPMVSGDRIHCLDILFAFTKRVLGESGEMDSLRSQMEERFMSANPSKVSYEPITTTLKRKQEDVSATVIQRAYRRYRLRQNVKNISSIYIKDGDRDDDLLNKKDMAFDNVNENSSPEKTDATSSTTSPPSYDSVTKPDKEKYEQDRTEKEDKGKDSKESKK
In words: Whole-cell voltage clamp electrophysiology, automated patch clamp (marker c in Table of Examples). It is filed as cell-based. The conditions noted are these: marker c = Automated patch clamp data; read-out: Nav 1.7 activity. The procedure, abridged:
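A voltage protocol weighted toward inactivated-state block was used to test compounds on stably expressing cells, with pulses from −65 mV holding to −10 mV test and −100 mV. Currents came from whole-cell automated patch-clamp recordings, either IonWorks Quattro or other automated instruments, usually in perforated-patch mode.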
`CN(c1ccccc1)c1nc(N)nc(-c2noc(N3CCC(S(=O)(=O)CC(F)(F)F)CC3)n2)n1` [Example 365, 2-N-methyl-2-N-phenyl-6-(5-{4-[(2,2,2-trifluoroethane)sulfonyl]piperidin-1-yl}-1,2,4-oxadiazol-3-yl)-1,3,5-triazine-2,4-diamine]: the pIC50 was less than 5.07. As for `CN(c1ccccc1)c1nc(N)nc(-c2noc(-c3ccc(OCCOCC(F)(F)F)nc3)n2)n1` [Example 366, 2-N-Methyl-2-N-phenyl-6-(5-{6-[2-(2,2,2-trifluoroethoxy)ethoxy]pyridin-3-yl}-1,2,4-oxadiazol-3-yl)-1,3,5-triazine-2,4-diamine], the pIC50 was 7.28. Under `CC(C)SC1CCN(c2nc(-c3nc(N)nc(N(C)c4ccccc4)n3)no2)CC1` [Example 367, 2-N-methyl-2-N-phenyl-6-{5-[4-(propan-2-ylsulfanyl)piperidin-1-yl]-1,2,4-oxadiazol-3-yl}-1,3,5-triazine-2,4-diamine] stands 5.69. As for `CC(C)[S+]([O-])C1CCN(c2nc(-c3nc(N)nc(N(C)c4ccccc4)n3)no2)CC1` (stereo not drawn) [Example 368, 2-N-methyl-2-N-phenyl-6-{5-[4-(propane-2-sulfinyl)piperidin-1-yl]-1,2,4-oxadiazol-3-yl}-1,3,5-triazine-2,4-diamine], the pIC50 is 5.17.

For the molecule `CN(c1ccccc1)c1nc(N)nc(-c2noc(-c3ncccc3C(=O)NCC3CC3)n2)n1` [Example 369, 2-(3-{4-amino-6-[methyl(phenyl)amino]-1,3,5-triazin-2-yl}-1,2,4-oxadiazol-5-yl)-N-(cyclopropylmethyl)pyridine-3-carboxamide], the pIC50 is 5.88. Take `CN(c1ccccc1)c1nc(N)nc(-c2noc(-c3cccnc3C(=O)NCC3CC3)n2)n1` [Example 370, 3-(3-{4-amino-6-[methyl(phenyl)amino]-1,3,5-triazin-2-yl}-1,2,4-oxadiazol-5-yl)-N-(cyclopropylmethyl)pyridine-2-carboxamide]: the pIC50 is 5.45. As to `CN(c1ccccc1)c1nc(N)nc(-c2noc(-c3ncccc3C(=O)NC3CCC3)n2)n1` [Example 371, 2-(3-{4-amino-6-[methyl(phenyl)amino]-1,3,5-triazin-2-yl}-1,2,4-oxadiazol-5-yl)-N-cyclobutylpyridine-3-carboxamide], the pIC50 was 5.14.

For the molecule `CN(c1ccccc1)c1nc(N)nc(-c2noc(-c3ccc(OCC(F)F)nc3)n2)n1` [Example 372, 6-{5-[6-(2,2-difluoroethoxy)pyridin-3-yl]-1,2,4-oxadiazol-3-yl}-2-N-methyl-2-N-phenyl-1,3,5-triazine-2,4-diamine], the pIC50 was 6.81. The figure for `CN(c1ccccc1)c1nc(N)nc(-c2noc(-c3cccnc3C(=O)NC3CC3)n2)n1` [Example 373, 3-(3-{4-amino-6-[methyl(phenyl)amino]-1,3,5-triazin-2-yl}-1,2,4-oxadiazol-5-yl)-N-cyclopropylpyridine-2-carboxamide] is 5.31; for `CN(c1ccccc1)c1nc(N)nc(-c2noc(-c3cccnc3C(=O)NC3CCC3)n2)n1` [Example 374, 3-(3-{4-amino-6-[methyl(phenyl)amino]-1,3,5-triazin-2-yl}-1,2,4-oxadiazol-5-yl)-N-cyclobutylpyridine-2-carboxamide] it is 5.68; for `CN(c1ccccc1)c1nc(N)nc(-c2noc(-c3cccnc3C(=O)NCC(F)(F)F)n2)n1` [Example 375, 3-(3-{4-amino-6-[methyl(phenyl)amino]-1,3,5-triazin-2-yl}-1,2,4-oxadiazol-5-yl)-N-(2,2,2-trifluoroethyl)pyridine-2-carboxamide] it is 5.82. The figure for `CN(c1ccccc1)c1nc(N)nc(-c2noc(-c3ncccc3C(=O)NC3CC3)n2)n1` [Example 376, 2-(3-{4-amino-6-[methyl(phenyl)amino]-1,3,5-triazin-2-yl}-1,2,4-oxadiazol-5-yl)-N-cyclopropylpyridine-3-carboxamide] is 5.02; for `CN(c1ccccc1)c1nc(N)nc(-c2noc(-c3ncccc3C(=O)OCC3CC3)n2)n1` [Example 377] it is 6.63. Turning to `CN(c1ccccc1)c1nc(N)nc(-c2noc(-c3cccnc3C(=O)OCC3CC3)n2)n1` [Example 378, cyclopropylmethyl 3-(3-{4-amino-6-[methyl(phenyl)amino]-1,3,5-triazin-2-yl}-1,2,4-oxadiazol-5-yl)pyridine-2-carboxylate], the pIC50 was 6.40.

On to `CN(c1ccccc1)c1nc(N)nc(-c2noc(-c3ncccc3C(=O)OC3CCCC3)n2)n1` [Example 379, cyclopentyl 2-(3-{4-amino-6-[methyl(phenyl)amino]-1,3,5-triazin-2-yl}-1,2,4-oxadiazol-5-yl)pyridine-3-carboxylate], for which the pIC50 was 6.41.

`CN(c1ccccc1)c1nc(N)nc(-c2noc(-c3cccnc3C(=O)OC3CCCC3)n2)n1` [Example 380, cyclopentyl 3-(3-{4-amino-6-[methyl(phenyl)amino]-1,3,5-triazin-2-yl}-1,2,4-oxadiazol-5-yl)pyridine-2-carboxylate]: the pIC50 was 7.08. Take `CN(c1ccccc1)c1nc(N)nc(-c2noc(-c3ncccc3C(=O)NCC(F)(F)F)n2)n1` [Example 381, 2-(3-{4-amino-6-[methyl(phenyl)amino]-1,3,5-triazin-2-yl}-1,2,4-oxadiazol-5-yl)-N-(2,2,2-trifluoroethyl)pyridine-3-carboxamide]: the pIC50 was 5.31. As for `CN(c1ccccc1)c1nc(N)nc(-c2noc(C3CN(C(=O)OC(C)(C)C)C3)n2)n1` [Example 382, tert-butyl 3-(3-{4-amino-6-[methyl(phenyl]amino]-1,3,5-triazin-2-yl}-1,2,4-oxadiazol-5-yl)azetidine-1-carboxylate], the pIC50 was 5.32. As to `CN(c1ccccc1)c1nc(N)nc(-c2noc(C3CN(Cc4ccccc4)C3)n2)n1` [Example 383, 6-[5-(1-benzylazetidin-3-yl)-1,2,4-oxadiazol-3-yl]-2-N-methyl-2-N-phenyl-1,3,5-triazine-2,4-diamine], the pIC50 was 5.81. On to `CC(=O)N1CC(c2nc(-c3nc(N)nc(N(C)c4ccccc4)n3)no2)C1` [Example 384, 1-[3-(3-{4-Amino-6-[methyl(phenyl)amino]-1,3,5-triazin-2-yl}-1,2,4-oxadiazol-5-yl)azetidin-1-yl]ethan-1-one], for which the pIC50 is less than 5.07. The figure for `CN(c1ccccc1)c1nc(N)nc(-c2noc(C3CN(CCC(F)(F)F)C3)n2)n1` [Example 385, 2-N-methyl-2-N-phenyl-6-{5-[1-(3,3,3-trifluoropropyl)azetidin-3-yl]-1,2,4-oxadiazol-3-yl}-1,3,5-triazine-2,4-diamine] is 5.65; for `CN(c1ccccc1)c1nc(N)nc(-c2noc([C@H]3[C@@H]4C(=O)N(Cc5ccccc5)C(=O)[C@@H]43)n2)n1` [Example 386, (1R,5S,6S)-6-(3-{4-Amino-6-[methyl(phenyl)amino]-1,3,5-triazin-2-yl}-1,2,4-oxadiazol-5-yl)-3-benzyl-3-azabicyclo[3.1.0]hexane-2,4-dione] it is less than 5.00; for `CN(c1ccccc1)c1nc(N)nc(-c2noc(N3C[C@@H]4[C@@H](COCC(F)(F)F)[C@@H]4C3)n2)n1` [Example 387, 2-N-methyl-2-N-phenyl-6-{5-[6-[(2,2,2-trifluoroethoxy)methyl]-3-azabicyclo[3.1.0]hexan-3-yl]-1,2,4-oxadiazol-3-yl}-1,3,5-triazine-2,4-diamine] it is 5.85. Take `CN(c1ccccc1)c1nc(N)nc(-c2noc(N3CCN(S(=O)(=O)N(C)C)CC3)n2)n1` [Example 388, 4-(3-{4-amino-6-[methyl(phenyl)amino]-1,3,5-triazin-2-yl}-1,2,4-oxadiazol-5-yl)-N,N-dimethylpiperazine-1-sulfonamide]: the pIC50 is 5.55. Under `CN(c1ccccc1)c1nc(N)nc(-c2noc(N3CCN(S(=O)(=O)CC(F)(F)F)CC3)n2)n1` [Example 389, 2-N-methyl-2-N-phenyl-6-(5-{4-[(2,2,2-trifluoroethane)sulfonyl]piperazin-1-yl}-1,2,4-oxadiazol-3-yl)-1,3,5-triazine-2,4-diamine] stands 5.22; under `Nc1nc(Nc2ccccc2)nc(-c2noc(N3C[C@@H]4[C@@H](COCC(F)(F)F)[C@@H]4C3)n2)n1` [Example 390, 2-N-phenyl-6-{5-[6-[(2,2,2-trifluoroethoxy)methyl]-3-azabicyclo[3.1.0]hexan-3-yl]-1,2,4-oxadiazol-3-yl}-1,3,5-triazine-2,4-diamine], 6.15; under `CN(c1ccccc1)c1nc(N)nc(-c2noc(N3CC4C(COc5ccccc5)C4C3)n2)n1` (stereo not drawn) [Example 391, 2-N-methyl-6-{5-[6-(phenoxymethyl)-3-azabicyclo[3.1.0]hexan-3-yl]-1,2,4-oxadiazol-3-yl}-2-N-phenyl-1,3,5-triazine-2,4-diamine], 6.27. In the case of `Nc1nc(Nc2ccccc2)nc(-c2noc(N3CC4C(COc5ccccc5)C4C3)n2)n1` (stereo not drawn) [Example 392, 6-{5-[6-(phenoxymethyl)-3-azabicyclo[3.1.0]hexan-3-yl]-1,2,4-oxadiazol-3-yl}-2-N-phenyl-1,3,5-triazine-2,4-diamine], the pIC50 is 6.36. Take `Nc1nc(Nc2ccccc2)nc(-c2noc(N3C[C@@H]4[C@@H](COCC5CC5)[C@@H]4C3)n2)n1` [Example 393, 6-{5-[6-[(cyclopropylmethoxy)methyl]-3-azabicyclo[3.1.0]hexan-3-yl]-1,2,4-oxadiazol-3-yl}-2-N-phenyl-1,3,5-triazine-2,4-diamine]: the pIC50 is 6.05.

With `Nc1nc(Nc2ccccc2)nc(-c2noc(N3C[C@@H]4[C@@H](COCCC(F)(F)F)[C@@H]4C3)n2)n1` [Example 394, 2-N-phenyl-6-{5-[6-[(3,3,3-trifluoropropoxy)methyl]-3-azabicyclo[3.1.0]hexan-3-yl]-1,2,4-oxadiazol-3-yl}-1,3,5-triazine-2,4-diamine], the pIC50 is 6.18.
